In the NIST ThermoML archive (doi:10.1021/je800896m):
“And” between values parts separate entries of the source, which are not always exact repeats. Identical values can stand only once. ± gives the expanded uncertainty stated by the source.

Conditions: Liquid, Closed cell (Static) method

vapor or sublimation pressure (318.34 K) [kPa]	vapor or sublimation pressure (346.96 K) [kPa]	vapor or sublimation pressure (318.35 K)	vapor or sublimation pressure (346.14 K) [kPa]	vapor or sublimation pressure (347.06 K) [kPa]	vapor or sublimation pressure (346.97 K)	vapor or sublimation pressure (347.07 K) [kPa]	SMILES
608.3 ± 2.1	1177.5 ± 3.7	–	–	–	–	–	CC(C)C [2-methylpropane]
–	–	542.1 ± 1.9 kPa	1054.9 ± 3.4	–	–	–	C=C(C)C [2-methylpropene]
423.5 ± 1.6	–	–	–	868.5 ± 2.8	–	–	C/C=C/C [(E)-2-butene]
–	–	437.5 ± 1.6 kPa	–	–	881.7 ± 2.8 kPa	–	CCCC [butane]
7.3 ± 0.8	–	6.9 ± 0.8 kPa and 6.7 ± 0.8 kPa	21.4 ± 0.8	–	22.2 ± 0.8 kPa and 22.5 ± 0.8 kPa	22.2 ± 0.8	C1CCSC1 [tetrahydrothiophene]
